Source: patent US20210283163A1, “COMPOSITIONS AND METHODS FOR THE TREATMENT OF ACUTE AND CHRONIC PRURITIS” (Duke University, priority 2018, published 2021)

Experiments:
mice [1] = assay: Back model: intradermal nape injection, scratching; assay type: in vivo, mouse; conditions: 0.01-1 mM, 10 μL
Experimental: (§1) Behavioral Assessment for Scratching (Itch) and Wiping (Pain). Mice were shaved on the cheek or nape after a brief anesthesia with isoflurane. Before experiments, mice were habituated in small plastic chambers (14×18×12 cm) daily for two days. The room temperature and humidity remained stable for all the experiments. […] After the injection, the number of scratches in 60 min was counted. A scratch was counted when a mouse lifted its hind paw to scratch the shaved region and returned the paw to the floor or to the mouth. A bout of wiping was defined as a continuous wiping movement with a forepaw directing at the area of the injection area (Shimada and LaMotte, Pain 2008, 139, 681-687). Scratching and wiping behavior was videoed for 30 min or 60 min using Sony HDR-CX610 camera. The video was subsequently played back offline and the numbers of scratches and wipes were quantified in a blinded manner.

TRPV1 = biological target: T1, TRPV1 (Mus musculus, UniProt Q704Y3); assay: Whole-cell patch clamp in CHO cells transfected with mouse Trpv1 cDNA; assay type: cell-based; conditions: miR-711 10 μM; capsaicin 50 nM
T1 construct: expressed in transfected cells; host or cells: CHO cells (ATCC CRL-9096), plasmid pcDNA3.1-mTrpv1, a gift from Korea University
Experimental: (§2) Constructs. The cDNAs of mouse pcDNA3.1-Trpa1, pcDNA3.1-Trpv1, pcDNA3.1-Trpv2, pcDNA3.1-Trpv3, and pcDNA3.1-Trpv4 were kindly provided Dr. Sun Work Hwang from Korea University. Mouse Trpa1 cDNA was subcloned into pCGN-HA backbone (Addgene) using In-Fusion HD Cloning Kit (Clontech Laboratories, CA). Q5 Site-Directed Mutagenesis Kit was used to generate mTrpa1 mutant (M1-M13) based on pCGN-mTrpa1.
(§3) Cell Culture and Transfection. CD4^+ Myla cell line was cultured in RPMI 1640 media (GIBCO), supplemented with 2 mM Glutamine (GIBCO), 100 U/mL IL-2 (Sigma), 100 U/mL IL-4 (Sigma), and 10% human AB serum (Sigma). HuT 102 cell line was cultured in RPMI 1640 supplemented with pyruvate, HEPES, and 10% (v/v) fetal bovine serum (HyClone). HEK293-hTRPA1 stable cell line was cultured in MEM (GIBCO) containing 2 mM Glutamine, 4 μg/mL Blasticidin, 10% FBS (v/v). B16 and CHO cells were cultured in high glucose (4.5 g/L) Dulbecco's Modified Eagle's Medium (GIBCO) containing 10% (v/v) fetal bovine serum (GIBCO). Culture media were supplemented with 50 units/mL of penicillin and 50 μg/mL streptomycin, and cultures were maintained with 5% CO2 in 37° C. incubator. Transfection (2 μg cDNA) was performed with Lipofectamine™ 2000 Reagent (Invitrogen) at 80% confluency and the transfected cells were cultured in the same media for 48 hr before electrophysiological and biochemical studies. […]

TRPV4 = biological target: T2, TRPV4 (Mus musculus, UniProt Q9EPK8); assay: Whole-cell patch clamp in CHO cells transfected with mouse Trpv4 cDNA; assay type: cell-based; conditions: miR-711 10 μM; GSK1016790A 1 μM
T2 construct: expressed in transfected cells; host or cells: CHO cells (ATCC CRL-9096), plasmid pcDNA3.1-mTrpv4, a gift from Korea University
Experimental: as §2, §3

hTRPA1 = hTRPA1 (Homo sapiens, UniProt O75762); assay: Calcium imaging (Fura-2) in TRPA1-expressing HEK293 cells; assay type: cell-based; conditions: 50 μM
Experimental: Ca^2+ Imaging. Ca ^2+ imaging was conducted in mouse DRG and TG neurons from Pirt-GCaMP3 mice (Anderson et al., Neurosci. Bull. 2018, 34, 194-199) at room temperature. The imaging buffer includes 140 mM NaCl, 10 mM D-(+)-Glucose, 1 mM MgCl2, 2 mM CaCl2, 5 mM KCl, 10 mM HEPES, pH=7.4, osmolarity=320 mOsm/L. Calcium signals were measured using green emitted light in a 3 s interval. Ca ^2+ signal amplitudes were presented as ΔF/F0=(Ft−F0)/F0 as ratio of fluorescence difference (Ft−F0) to basal value (F0). The average fluorescence intensity in the baseline period was taken as F0. Ca ^2+ imaging was also analyzed in HEK293-TRPA1 cell line after loading cells with […] fura2-AM (Invitrogen) for 40 min in the Ca^2+ imaging buffer. Ca^2+ imaging protocol was a ratio metric method with 340/380-nm wavelength light for dual excitation. Data were presented as ΔR/R0, determined as the fraction ΔR (Rt−R0) of the increase of a given ratio over baseline ratio (R0).

calcium channels = assay: Calcium current recording in mouse DRG neurons; assay type: cell-based; conditions: 10 μM, 1 min
Experimental: To test the effects of miR-711 on calcium channels, calcium currents were recorded in mouse DRG neurons (Andrade et al., Nat. Neurosci. 2010, 13, 1249-1256). Calcium current was evoked by a 40-ms step depolarization to −10 mV from the holding potential of −80 mV, using i) external solution (mM): 135 mM TEA-C1, 1 mM CaCl2, 10 mM HEPES, 4 mM MgCl2 and 0.1 μM TTX, adjusted to a pH of 7.4 with TEA-OH, and ii) the pipette solution: 126 mM CsCl, 5 mM Mg-ATP, 10 mM EGTA and 10 mM HEPES, adjusted to a pH of 7.3 with CsOH.

mice [2] = assay: Acute pruritus induced by intradermal pruritogens, effect of peptides; assay type: in vivo, mouse; conditions: peptide 2 mM
Experimental: as §1

Sequence of hTRPA1 (O75762 whole entry): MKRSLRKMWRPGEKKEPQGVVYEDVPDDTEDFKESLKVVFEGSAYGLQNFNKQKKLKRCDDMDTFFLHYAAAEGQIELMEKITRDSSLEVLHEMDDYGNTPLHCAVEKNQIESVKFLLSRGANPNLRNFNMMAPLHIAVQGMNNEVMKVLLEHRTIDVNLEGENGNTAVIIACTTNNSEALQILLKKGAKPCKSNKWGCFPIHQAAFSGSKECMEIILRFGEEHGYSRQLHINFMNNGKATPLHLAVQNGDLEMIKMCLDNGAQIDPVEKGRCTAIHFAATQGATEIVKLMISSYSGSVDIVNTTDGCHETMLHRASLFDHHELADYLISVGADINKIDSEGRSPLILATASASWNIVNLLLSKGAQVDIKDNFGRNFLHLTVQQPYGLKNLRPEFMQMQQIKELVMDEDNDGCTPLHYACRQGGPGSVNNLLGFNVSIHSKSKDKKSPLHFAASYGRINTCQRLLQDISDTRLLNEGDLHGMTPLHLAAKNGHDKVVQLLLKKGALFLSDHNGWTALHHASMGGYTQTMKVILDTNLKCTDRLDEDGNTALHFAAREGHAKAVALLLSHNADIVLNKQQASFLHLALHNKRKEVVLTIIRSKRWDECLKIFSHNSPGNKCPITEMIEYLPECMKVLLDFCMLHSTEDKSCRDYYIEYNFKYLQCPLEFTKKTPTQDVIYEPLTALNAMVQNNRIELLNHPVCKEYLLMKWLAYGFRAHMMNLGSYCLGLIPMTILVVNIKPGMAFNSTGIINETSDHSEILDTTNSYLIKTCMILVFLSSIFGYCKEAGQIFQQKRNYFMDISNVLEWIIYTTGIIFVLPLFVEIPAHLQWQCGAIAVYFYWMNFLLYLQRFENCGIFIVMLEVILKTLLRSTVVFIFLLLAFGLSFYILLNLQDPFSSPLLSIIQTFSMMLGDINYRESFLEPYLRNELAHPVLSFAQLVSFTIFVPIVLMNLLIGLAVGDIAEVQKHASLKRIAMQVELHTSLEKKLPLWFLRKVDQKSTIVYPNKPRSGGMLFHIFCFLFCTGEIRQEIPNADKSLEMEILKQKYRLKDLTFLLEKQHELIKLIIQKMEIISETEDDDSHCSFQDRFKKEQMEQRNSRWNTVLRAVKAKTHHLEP
T1 sequence (Q704Y3 whole entry): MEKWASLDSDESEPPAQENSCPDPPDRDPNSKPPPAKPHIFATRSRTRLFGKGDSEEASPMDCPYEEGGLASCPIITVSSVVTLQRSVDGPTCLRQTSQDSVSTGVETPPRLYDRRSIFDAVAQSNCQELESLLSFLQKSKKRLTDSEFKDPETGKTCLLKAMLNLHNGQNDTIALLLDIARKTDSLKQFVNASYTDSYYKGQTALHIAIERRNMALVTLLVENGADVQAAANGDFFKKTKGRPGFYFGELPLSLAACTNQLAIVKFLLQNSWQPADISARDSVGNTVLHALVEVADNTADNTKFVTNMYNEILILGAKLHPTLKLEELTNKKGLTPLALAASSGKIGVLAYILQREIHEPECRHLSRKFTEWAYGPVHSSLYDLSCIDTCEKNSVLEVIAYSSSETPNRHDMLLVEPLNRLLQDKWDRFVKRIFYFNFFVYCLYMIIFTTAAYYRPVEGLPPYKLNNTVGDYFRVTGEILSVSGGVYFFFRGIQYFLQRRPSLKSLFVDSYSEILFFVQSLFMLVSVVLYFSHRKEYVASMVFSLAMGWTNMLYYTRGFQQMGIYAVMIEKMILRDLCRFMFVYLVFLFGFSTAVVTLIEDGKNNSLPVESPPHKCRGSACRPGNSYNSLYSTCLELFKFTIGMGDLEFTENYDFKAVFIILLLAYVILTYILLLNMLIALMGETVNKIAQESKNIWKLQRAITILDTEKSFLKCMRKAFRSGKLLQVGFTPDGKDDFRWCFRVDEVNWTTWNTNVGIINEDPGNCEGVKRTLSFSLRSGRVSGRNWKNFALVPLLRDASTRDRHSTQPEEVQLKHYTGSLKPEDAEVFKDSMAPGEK
T2 sequence (Q9EPK8 whole entry): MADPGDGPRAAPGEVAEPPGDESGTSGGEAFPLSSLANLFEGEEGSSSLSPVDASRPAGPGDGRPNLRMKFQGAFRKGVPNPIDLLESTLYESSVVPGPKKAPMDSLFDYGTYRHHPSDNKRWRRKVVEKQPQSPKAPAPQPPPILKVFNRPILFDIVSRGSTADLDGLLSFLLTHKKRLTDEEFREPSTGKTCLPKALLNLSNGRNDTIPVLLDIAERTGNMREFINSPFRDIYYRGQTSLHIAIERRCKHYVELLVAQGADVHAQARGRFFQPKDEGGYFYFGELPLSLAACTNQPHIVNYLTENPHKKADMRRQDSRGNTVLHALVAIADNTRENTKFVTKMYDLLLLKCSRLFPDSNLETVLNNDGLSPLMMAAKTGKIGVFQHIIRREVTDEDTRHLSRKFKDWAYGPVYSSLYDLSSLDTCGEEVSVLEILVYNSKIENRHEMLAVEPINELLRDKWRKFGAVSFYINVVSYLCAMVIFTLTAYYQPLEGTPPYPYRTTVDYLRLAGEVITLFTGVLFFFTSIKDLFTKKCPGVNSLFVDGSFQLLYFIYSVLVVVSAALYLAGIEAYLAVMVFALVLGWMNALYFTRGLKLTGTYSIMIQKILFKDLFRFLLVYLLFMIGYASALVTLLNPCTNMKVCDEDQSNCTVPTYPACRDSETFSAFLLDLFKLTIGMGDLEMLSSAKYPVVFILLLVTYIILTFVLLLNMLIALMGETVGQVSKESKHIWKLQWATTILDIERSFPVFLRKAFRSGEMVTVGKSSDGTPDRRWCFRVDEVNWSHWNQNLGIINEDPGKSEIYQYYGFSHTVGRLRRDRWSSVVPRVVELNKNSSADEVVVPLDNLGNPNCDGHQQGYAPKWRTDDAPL

| Substance | scratching after intradermal injection on the nape of neck (mice [1]) | inward currents (TRPV1) | inward currents (TRPV4) | calcium responses in TRPA1-expressing HEK293 cells (hTRPA1) | calcium currents in DRG neurons (calcium channels) | effect on miR-711-induced pruritus (mice [2]; 15 μL intradermal, mmu-miR-711 1 mM, 10 μL) | effect on acute itch induced by compound 48/80 (mice [2]; 15 μL, 48/80 50 μg/10 μL) | effect on acute itch induced by chloroquine (mice [2]; 15 μL, CQ 100 μg/10 μL) |
| --- | --- | --- | --- | --- | --- | --- | --- | --- |
| miR-711: mmu-miR-711: gggacccggggagagauguaag (SEQ ID NO: 5) (GGGACCCGGGGAGAGAUGUAAG; chemistry not given here) | dose-dependent scratching | failed to trigger inward currents | failed to trigger inward currents | evoked calcium responses | did not alter calcium currents |  |  |  |
| NH2-FRNELAYPVLTFGQL-COOH (H-FRNELAYPVLTFGQL-OH) [blocking peptide] |  |  |  |  |  | prevented | no effect | no effect |
